Laboratory results from patent publication US20230390260A1, “METHOD OF TREATMENT OF PAIN THROUGH BUCCAL ADMINISTRATION OF FLUNIXIN” (Intervet Inc., priority 2020, published 2023).
Read-outs that look alike come from different tables or passages of the source.

Legend:
[1] = Pharmacokinetic study of flunixin in young piglets, comparing administration routes (plasma LC-MS/MS); format: in vivo, piglets (swine); conditions: pig, read-out: % F (bioavailability)
Protocol: A pharmacokinetic study was conducted to compare the bioavailability of flunixin when administered buccally, intramuscularly, IV, and the transdermal routes via the perineum, ear canal, rectum, and midline in young piglets.
Piglets were administered either Banamine® Transdermal (buccal, perineum, ear canal, rectum, and midline) or Banamine®-S Injectable Solution (intravenous and intramuscular) at 5 to 6 days of age. Blood samples were collected from the piglets at 5 min, 15 min, 1 h, 2 h, 4 h, 8 h, 12 h, 24 h, 36 h, and 48 h for those treated with Banamine® Transdermal, and at 1 h, 2 h, 4 h, 8 h, 12 h, 24 h, 36 h, 48 h, 60 h, and 72 h for those treated with Banamine®-S Injectable Solution. Plasma samples were analyzed for flunixin concentration using an GLP-validated LC/MS-MS method. Swine plasma (K2EDTA) is extracted by protein precipitation with an acetonitrile solution of the internal standard (Flunixin-d3). The samples are then centrifuged, and the resulting supernatants are analyzed by LC-MS/MS using selective reaction monitoring in negative electrospray ionization mode. The ionic transitions monitored are m/z 295 to m/z 251 for Flunixin and m/z 298 to m/z 254 for the internal standard.
The following key pharmacokinetic parameters were calculated for each group (mean±standard error): […]

[2] = bovine species, same (transdermal) formulation; cited from earlier work

In the case of `Cc1c(Nc2ncccc2C(=O)O)cccc1C(F)(F)F` [flunixin, Flunixin], the bioavailability ([1]; im, Intramuscular, Banamine-S Injectable Solution, piglets) was 71%, the bioavailability ([1]; other: buccal, Buccal, Banamine Transdermal, piglets) was 40% and the bioavailability ([1]; topical or ocular, Midline, Banamine Transdermal, piglets (swine)) was 5%. The bioavailability [2] was 44%.
